In patent US20140275094A1, “METHOD FOR TREATING PULMONARY ARTERIAL HYPERTENSION IN A PATIENT NOT HAVING IDIOPATHIC PULMONARY FIBROSIS” (GILEAD SCIENCES, INC., priority 2012, published 2014):

Key:
[1] = target: T1, multidrug resistance protein 2 (MRP2) (Homo sapiens, UniProt Q92887); test: Inhibition of hepatic transporter MRP2, transfected Sf9 cells; format: cell-based
T1 construct: expressed in transfected cells; host or cells: Spodoptera frugiperda (Sf9) ovarian cells
Experimental: (§1) Inhibition constants (IC50) were measured for human bile salt export pump (BSEP), sodium taurocholate cotransporting polypeptide (NTCP), multidrug resistance protein 2 (MRP2), P-glycoprotein (Pgp), breast cancer resistance protein (BCRP), organic anion-transporting polypeptide 1B1 (OATP1B1), and OATP1B3 in transfected cell-lines. Known inhibitors were used as positive controls.

P-glycoprotein (Pgp) = target: T2, P-glycoprotein (Pgp) (Homo sapiens, UniProt P08183); test: Inhibition of Pgp, transfected MDCKII cells; format: cell-based; settings: human, transfected MDCKII cells
T2 construct: expressed in transfected cells; host or cells: Madin-Darby canine kidney strain II (MDCKII)
Experimental: as §1

[2] = target: T3, breast cancer resistance protein (BCRP) (Homo sapiens, UniProt Q9UNQ0); test: Inhibition of BCRP, transfected MDCKII cells; format: cell-based; settings: human, transfected MDCKII cells
T3 construct: expressed in transfected cells; host or cells: MDCKII
T3 sequence (Q9UNQ0 1-655): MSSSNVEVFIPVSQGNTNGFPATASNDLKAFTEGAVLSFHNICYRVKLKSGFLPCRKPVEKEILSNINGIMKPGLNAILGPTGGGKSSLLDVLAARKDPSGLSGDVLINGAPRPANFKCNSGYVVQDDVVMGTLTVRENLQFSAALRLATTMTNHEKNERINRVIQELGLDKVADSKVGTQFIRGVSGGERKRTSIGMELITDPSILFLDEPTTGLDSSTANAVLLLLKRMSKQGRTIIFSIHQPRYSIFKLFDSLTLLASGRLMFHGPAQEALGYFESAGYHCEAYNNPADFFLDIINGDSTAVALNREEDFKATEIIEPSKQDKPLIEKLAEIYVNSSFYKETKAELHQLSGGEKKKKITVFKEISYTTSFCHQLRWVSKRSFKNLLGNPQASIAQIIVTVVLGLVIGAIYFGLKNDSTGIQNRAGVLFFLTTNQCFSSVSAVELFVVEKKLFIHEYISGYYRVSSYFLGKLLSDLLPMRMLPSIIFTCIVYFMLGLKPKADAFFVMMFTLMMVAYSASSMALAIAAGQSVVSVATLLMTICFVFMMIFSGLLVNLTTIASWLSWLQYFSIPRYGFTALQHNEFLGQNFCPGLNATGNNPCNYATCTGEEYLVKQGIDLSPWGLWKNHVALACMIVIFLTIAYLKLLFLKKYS
Experimental: as §1

[3] = Cumulative incidence of treatment-emergent serum aminotransferase abnormalities in clinical trials; format: in vivo, human
Text: The ambrisentan clinical development program included placebo-controlled and non-placebo-controlled studies. One Phase 2 study (AMB-220) and two Phase 3 studies (AMB-320 and AMB-321) were completed at the time of the NDA submission. Three ongoing studies (AMB-220-E, AMB-222, and AMB-320/321-E) provided additional data in both the original NDA and the 4-month safety update, and data from one additional ongoing study (AMB-323) were included in the 4-month safety update.
The cumulative incidence of aminotransferase elevations by severity, summarized as a percentage of the cumulative number of subjects who received ambrisentan in clinical trials, is provided in Table 1. The cumulative incidence of aminotransferase elevations>3×ULN (upper limit of the normal range) accompanied by total bilirubin>2×ULN was 0.3% (2 subjects, both with alternative causes for the liver function test (LFT) abnormalities); the associated mean exposure to ambrisentan was 112.5 weeks (maximum, 341.0 weeks). In comparison, during the 12-week placebo controlled trials, 1 patient (1/132, 0.7%) receiving placebo had elevated aminotransferases (both alanine transaminase (ALT) and aspartate transaminase (AST) were >5×ULN) along with elevated total bilirubin (>2×ULN).

[4] = system: patients with IPF, with or without pulmonary hypertension (WHO Group 3); test: Randomized controlled study in idiopathic pulmonary fibrosis; format: in vivo
[5] = all clinical trials combined; cited from earlier work
[6] = system: patients with PAH (WHO Group 1); test: ARIES-1 12-week placebo-controlled study; format: in vivo, human; settings: for Mean change from baseline in 6-minute walk distance / Placebo-adjusted mean change from baseline in 6-minute walk distance / Placebo-adjusted median change from baseline in 6-minute walk distance: 12 weeks; for Mean change from baseline in 6-minute walk distance: mean ± SD
Experimental: Two 12-week, randomized, double-blind, placebo-controlled, multicenter studies were conducted in 393 patients with PAH (WHO Group 1). The two studies were identical in design except for the doses of ambrisentan and the geographic region of the investigational sites. ARIES-1 (Ambrisentan in Pulmonary Arterial Hypertension, Randomized, Double-Blind, Placebo-Controlled, Multicenter, Efficacy Studies) compared once-daily doses of 5 mg and 10 mg ambrisentan to placebo, while ARIES-2 compared once-daily doses of 2.5 mg and 5 mg ambrisentan to placebo. In both studies, ambrisentan or placebo was added to current therapy, which could have included a combination of anticoagulants, diuretics, calcium channel blockers, or digoxin, but not epoprostenol, treprostinil, iloprost, bosentan, or sildenafil. The primary study endpoint was 6-minute walk distance. In addition, clinical worsening, WHO functional class, dyspnea, and SF-36® Health Survey were assessed.
Patients had idiopathic or heritable PAH (64%) or PAH associated with connective tissue diseases (32%), HIV infection (3%), or anorexigen use (1%). There were no patients with PAH associated with congenital heart disease.
Patients had WHO functional class I (2%), II (38%), III (55%), or IV (5%) symptoms at baseline. The mean age of patients was 50 years, 79% of patients were female, and 77% were Caucasian.
Clinical Worsening: Time to clinical worsening of PAH was defined as the first occurrence of death, lung transplantation, hospitalization for PAH, atrial septostomy, study withdrawal due to the addition of other PAH therapeutic agents or study withdrawal due to early escape. Early escape was defined as meeting two or more of the following criteria: a 20% decrease in the 6-minute walk distance; an increase in WHO functional class; worsening right ventricular failure; rapidly progressing cardiogenic, hepatic, or renal failure; or refractory systolic hypotension.

[7] = >3 × ULN and total bilirubin > 2 × ULN, N = 707
[8] = Total > 3 × ULN, all subjects N = 707
[9] = ARIES-1, ambrisentan N = 134, 12-week treatment, intention-to-treat

T1 sequence (Q92887 whole entry): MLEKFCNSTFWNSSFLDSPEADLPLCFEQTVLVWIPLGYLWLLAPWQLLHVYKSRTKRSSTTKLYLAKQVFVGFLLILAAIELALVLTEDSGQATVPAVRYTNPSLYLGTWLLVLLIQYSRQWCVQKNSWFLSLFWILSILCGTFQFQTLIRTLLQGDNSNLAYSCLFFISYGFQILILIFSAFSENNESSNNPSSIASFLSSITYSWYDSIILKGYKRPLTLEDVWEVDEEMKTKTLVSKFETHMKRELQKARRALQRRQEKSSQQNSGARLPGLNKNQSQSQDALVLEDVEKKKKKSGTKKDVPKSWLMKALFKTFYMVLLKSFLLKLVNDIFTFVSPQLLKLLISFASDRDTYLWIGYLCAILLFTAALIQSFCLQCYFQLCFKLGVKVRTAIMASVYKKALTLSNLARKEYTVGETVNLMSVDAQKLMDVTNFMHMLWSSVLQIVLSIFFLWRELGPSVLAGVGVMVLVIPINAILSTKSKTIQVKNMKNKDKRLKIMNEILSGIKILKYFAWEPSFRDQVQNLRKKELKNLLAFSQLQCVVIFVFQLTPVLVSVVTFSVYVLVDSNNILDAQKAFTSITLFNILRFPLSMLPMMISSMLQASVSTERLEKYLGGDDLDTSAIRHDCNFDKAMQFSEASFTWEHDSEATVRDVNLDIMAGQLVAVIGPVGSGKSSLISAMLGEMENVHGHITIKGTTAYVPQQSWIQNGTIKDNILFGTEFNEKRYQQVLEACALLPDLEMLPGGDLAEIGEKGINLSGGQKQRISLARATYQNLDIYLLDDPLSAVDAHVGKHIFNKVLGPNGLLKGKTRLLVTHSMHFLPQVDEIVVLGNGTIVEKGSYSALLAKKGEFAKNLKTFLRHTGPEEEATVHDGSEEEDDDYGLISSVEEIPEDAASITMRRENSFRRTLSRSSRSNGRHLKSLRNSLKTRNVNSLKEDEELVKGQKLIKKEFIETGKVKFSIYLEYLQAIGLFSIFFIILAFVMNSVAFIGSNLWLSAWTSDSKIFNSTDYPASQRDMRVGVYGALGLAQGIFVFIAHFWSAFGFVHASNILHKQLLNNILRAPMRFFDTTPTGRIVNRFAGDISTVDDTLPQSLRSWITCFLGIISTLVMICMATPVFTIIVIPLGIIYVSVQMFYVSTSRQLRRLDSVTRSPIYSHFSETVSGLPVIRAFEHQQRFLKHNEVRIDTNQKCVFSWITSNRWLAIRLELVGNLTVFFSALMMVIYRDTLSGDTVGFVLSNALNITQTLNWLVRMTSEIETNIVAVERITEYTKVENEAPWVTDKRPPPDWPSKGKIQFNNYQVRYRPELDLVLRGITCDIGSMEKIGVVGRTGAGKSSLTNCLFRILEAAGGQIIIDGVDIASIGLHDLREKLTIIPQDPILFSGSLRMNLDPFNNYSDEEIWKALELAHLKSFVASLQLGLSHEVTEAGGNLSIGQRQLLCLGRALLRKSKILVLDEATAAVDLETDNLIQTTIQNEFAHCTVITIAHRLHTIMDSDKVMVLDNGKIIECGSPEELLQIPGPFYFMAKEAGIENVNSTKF
T2 sequence (P08183 whole entry): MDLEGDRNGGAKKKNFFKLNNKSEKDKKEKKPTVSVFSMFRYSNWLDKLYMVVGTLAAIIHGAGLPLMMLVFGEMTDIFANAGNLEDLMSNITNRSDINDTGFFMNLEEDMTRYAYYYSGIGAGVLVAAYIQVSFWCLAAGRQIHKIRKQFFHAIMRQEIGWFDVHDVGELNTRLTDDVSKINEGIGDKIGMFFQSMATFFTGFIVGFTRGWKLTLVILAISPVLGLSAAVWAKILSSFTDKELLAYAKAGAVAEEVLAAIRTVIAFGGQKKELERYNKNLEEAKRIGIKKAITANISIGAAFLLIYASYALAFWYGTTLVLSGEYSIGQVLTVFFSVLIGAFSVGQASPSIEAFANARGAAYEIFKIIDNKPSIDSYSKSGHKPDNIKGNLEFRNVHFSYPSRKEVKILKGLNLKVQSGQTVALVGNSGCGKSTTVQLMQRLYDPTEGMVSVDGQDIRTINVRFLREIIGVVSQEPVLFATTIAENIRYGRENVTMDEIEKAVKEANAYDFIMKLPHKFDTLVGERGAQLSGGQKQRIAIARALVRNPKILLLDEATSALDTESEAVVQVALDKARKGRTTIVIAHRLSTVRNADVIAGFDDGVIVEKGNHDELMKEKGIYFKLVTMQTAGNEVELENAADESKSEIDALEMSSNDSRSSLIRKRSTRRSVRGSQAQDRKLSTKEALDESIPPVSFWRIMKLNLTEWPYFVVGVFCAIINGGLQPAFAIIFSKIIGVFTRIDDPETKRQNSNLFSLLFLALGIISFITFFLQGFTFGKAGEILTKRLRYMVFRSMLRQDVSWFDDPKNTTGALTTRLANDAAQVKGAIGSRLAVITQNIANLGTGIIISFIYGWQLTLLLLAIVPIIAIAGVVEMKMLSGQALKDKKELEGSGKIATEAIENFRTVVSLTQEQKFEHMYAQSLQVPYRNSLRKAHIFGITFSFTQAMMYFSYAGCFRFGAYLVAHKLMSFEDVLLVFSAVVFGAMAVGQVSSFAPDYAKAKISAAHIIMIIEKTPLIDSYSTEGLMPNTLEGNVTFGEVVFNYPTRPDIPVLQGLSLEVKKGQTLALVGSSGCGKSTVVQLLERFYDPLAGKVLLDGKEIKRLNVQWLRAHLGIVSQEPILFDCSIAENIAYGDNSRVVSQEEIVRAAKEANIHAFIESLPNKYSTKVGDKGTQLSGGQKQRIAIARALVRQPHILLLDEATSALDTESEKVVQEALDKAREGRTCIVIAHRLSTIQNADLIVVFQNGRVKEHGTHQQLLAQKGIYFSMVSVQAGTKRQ

In the case of COc1ccccc1Oc1c(NS(=O)(=O)c2ccc(C(C)(C)C)cc2)nc(-c2ncccn2)nc1OCCO [Bosentan], the IC50 [1] is reported as greater than 100 µM, the IC50 (P-glycoprotein (Pgp)) is reported as greater than 100 µM and the IC50 [2] is reported as greater than 100 µM.
With COC(c1ccccc1)(c1ccccc1)[C@H](Oc1nc(C)cc(C)n1)C(=O)O [Ambrisentan, (25)-2-[(4,6-dimethylpyrimidin-2-yl)oxy]-3-methoxy-3,3-diphenylpropanoic acid] the “ALT/AST elevations, patient number” value ([3]; >3 to ≦5 × ULN, N = 707) was 25, the “ALT/AST elevations, patients (%)” value ([3]; >3 to ≦5 × ULN, N = 707) was “(3.5) %” and the “ALT/AST elevations, patient number” value [3, 7] was 2. The “ALT/AST elevations, patients (%)” value [3, 7] was “(0.3) %”, the “ALT/AST elevations, patients (%)” value ([3]; >3 × ULN and total bilirubin > 2 × ULN, N = 707, listed as ambrisentan) was 0.3% and the “ALT/AST elevations, patient number” value ([3]; >5 to ≦8 × ULN, N = 707) was 1. The “ALT/AST elevations, patients (%)” value ([3]; >5 to ≦8 × ULN, N = 707) was “(0.1) %”, the “ALT/AST elevations, patient number” value ([3]; >8 × ULN, N = 707) was 9 and the “ALT/AST elevations, patients (%)” value ([3]; >8 × ULN, N = 707) was “(1.3) %”. For the same compound, the “ALT/AST elevations, patient number” value [3, 8] was 35, the “ALT/AST elevations, patients (%)” value [3, 8] was “(5.0) %” and the patients who died ([4]; ambrisentan n=329, placebo 4%) was 8%. For the same compound, the “patients with a respiratory hospitalization” value ([4]; ambrisentan n=329, placebo 6%) was 13%, the “patients with a decrease in FVC/DLCO” value ([4]; ambrisentan n=329, placebo 12%) was 17% and the “risk of disease progression or death versus placebo” value ([4]; study terminated after 34 weeks) was “greater risk of disease progression or death”. The “1-year risk of significant aminotransferase abnormalities” value [5] was less than 3%, the “Mean change from baseline in 6-minute walk distance” value ([6]; ARIES-1, 5 mg once daily (N = 67)) was 23 ± 83 meters and the “Placebo-adjusted mean change from baseline in 6-minute walk distance” value ([6]; ARIES-1, 5 mg) was 31 meters. The “Placebo-adjusted median change from baseline in 6-minute walk distance” value ([6]; ARIES-1, 5 mg) was 27 meters, the “Mean change from baseline in 6-minute walk distance” value ([6]; ARIES-1, 10 mg once daily (N = 67)) was 44 ± 63 meters and the “Placebo-adjusted mean change from baseline in 6-minute walk distance” value ([6]; ARIES-1, 10 mg) was 51 meters. The “Placebo-adjusted median change from baseline in 6-minute walk distance” value ([6]; ARIES-1, 10 mg) was 39 meters, the “Clinical worsening, %” value [6, 9] was 3% and the “Clinical worsening, no.” value [6, 9] was 4. For the same compound, the “Time to clinical worsening, hazard ratio” value ([6]; ARIES-1, versus placebo) was 0.28.
